Laboratory results taken from patent US12673942B2, “Azabicyclyl-substituted heterocycles as fungicides” (Bayer Aktiengesellschaft, priority 2020, dated 2026).

Columns and labels:
[1] = test system: Colletotrichum lindemuthianum; experiment: Colletotrichum lindemuthianum in vitro cell test; format: cell-based; conditions: 144 h, 20 ppm of active ingredient, liquid culture, 6 days incubation, read-out: efficacy (inhibition of fungal growth)
Protocol: (§1) • Solvent: […] Fungicides were solubilized in DMSO and the solution used to prepare the required range of concentrations. The final concentration of DMSO used in the assay was 1%. A spore suspension of Colletotrichum lindemuthianum was prepared and diluted to the desired spore density. Fungicides were evaluated for their ability to inhibit spore germination and mycelium growth in liquid culture assay. The compounds were added in the desired concentration to the culture medium with spores. After 6 days incubation, fungi-toxicity of compounds was determined by spectrometric measurement of mycelium growth. Inhibition of fungal growth was determined by comparing the absorbance values in wells containing the fungicides with the absorbance in control wells without fungicides.

[2] = Measurement of Log P values by HPLC on reversed phase columns (EEC directive 79/831 Annex V.A8); format: physicochemical
Protocol: Measurement of Log P values as provided herein was performed according to EEC directive 79/831 Annex V.A8 by HPLC (High Performance Liquid Chromatography) on reversed phase columns with the following methods: • ^[a] Log P value is determined by measurement of LC-UV, in an acidic range, with 0.1% formic acid in water and acetonitrile as eluent (linear gradient from 10% acetonitrile to 95% acetonitrile). • ^[b] Log P value is determined by measurement of LC-UV, in a neutral range, with 0.001 molar ammonium acetate solution in water and acetonitrile as eluent (linear gradient from 10% acetonitrile to 95% acetonitrile). • ^[c] Log P value is determined by measurement of LC-UV, in an acidic range, with 0.1% phosphoric acid and acetonitrile as eluent (linear gradient from 10% acetonitrile to 95% acetonitrile).
If more than one Log P value is available within the same method, all the values are given and separated by “+”. […]

Alternaria alternata = Alternaria alternata in vitro cell test; format: cell-based; conditions: 120 h, 20 ppm of active ingredient, liquid culture, 5 days incubation, read-out: efficacy (inhibition of fungal growth)
Protocol: as §1, with “≤1%.” for “1%.”, “Alternaria alternata” for “Colletotrichum lindemuthianum”, “5” for “6”

Pyricularia oryzae = experiment: microbe, parasite or virus in culture; format: cell-based; conditions: 120 h, read-out: efficacy (inhibition of fungal growth)
Fusarium culmorum = Fusarium culmorum in vitro cell test; format: cell-based; conditions: 96 h, 20 ppm of active ingredient, liquid culture, 4 days incubation, read-out: efficacy (inhibition of fungal growth)
Protocol: • Solvent: DMSO • Culture medium: 14.6 g anhydrous D-glucose (VWR), 7.1 g Mycological Peptone (Oxoid), 1.4 g granulated Yeast Extract (Merck), QSP 1 liter • Inoculum: spore suspension
Fungicides were solubilized in DMSO and the solution used to prepare the required range of concentrations. The final concentration of DMSO used in the assay was ≤1%.
A spore suspension of Fusarium culmorum was prepared and diluted to the desired spore density.
Fungicides were evaluated for their ability to inhibit spore germination and mycelium growth in liquid culture assay. The compounds were added in the desired concentration to the culture medium with spores. After 4 days incubation, fungi-toxicity of compounds was determined by spectrometric measurement of mycelium growth. Inhibition of fungal growth was determined by comparing the absorbance values in wells containing the fungicides with the absorbance in control wells without fungicides.

[3] = method [a]: LC-UV, acidic range, 0.1% formic acid in water and acetonitrile as eluent
[4] = method [b]: LC-UV, neutral range, 0.001 molar ammonium acetate solution in water and acetonitrile as eluent

| SMILES | inhibition at 20 ppm [1] [%] | chromatographic logP [2, 3] | inhibition at 20 ppm (Alternaria alternata) [%] | inhibition at 20 ppm (Pyricularia oryzae) [%] | inhibition at 20 ppm (Fusarium culmorum) [%] | chromatographic logP [2, 4] |
| --- | --- | --- | --- | --- | --- | --- |
| Cc1ccc(C[C@@H]2CN=C(c3c(Oc4cccc(Cl)c4)nnc4ccccc34)N2)c(C)c1 (racemic) [Compound I-012] | ≥ 70 | 2.46 | ≥ 70 | ≥ 70 | – | – |
| Cc1ccc(CC2CN=C(c3c(Oc4cccc(C(F)(F)F)c4)cnc4ccccc34)N2)c(C)c1 (racemic) [Compound I-011, 4-[(5RS)-5-(2,4-dimethylbenzyl)-4,5-dihydro-1H-imidazol-2-yl]-3-[3-(trifluoromethyl)phenoxy]quinoline] | ≥ 70 | 2.57 | ≥ 70 | ≥ 70 | – | – |
| Cc1ccc(CC2CNN=C(c3c(Oc4cccc(C(F)(F)F)c4)cnc4ccccc34)N2)c(C)c1 (racemic) [Compound I-010, 4-[(5RS)-5-(2,4-dimethylbenzyl)-1,4,5,6-tetrahydro-1,2,4-triazin-3-yl]-3-[3-(trifluoromethyl)phenoxy]quinoline] | – | 2.57 | ≥ 70 | – | – | – |
| Cn1cc(-c2ccc(C[C@@H]3CON=C(c4c(Oc5cccc(C(F)(F)F)c5)nnc5ccccc45)N3)c(Cl)c2)cn1 (racemic) [Compound I-008] | ≥ 70 | 3.37 | ≥ 70 | ≥ 70 | – | – |
| Cc1ccc(C[C@@H]2CON=C(c3c(Oc4cccc(C(F)(F)F)c4)cnc4ccccc34)N2)c(C)c1 (racemic) [Compound I-004] | ≥ 70 | 4.19 | ≥ 70 | ≥ 70 | ≥ 70 | – |
| Cc1ccc(C[C@@H]2CON=C(c3c(Oc4cccc(C5CC5)c4)nnc4ccccc34)N2)c(C)c1 (racemic) [Compound I-003] | ≥ 70 | 4.11 | ≥ 70 | ≥ 70 | ≥ 70 | – |
| Cc1ccc(C[C@@H]2CON=C(c3c(Oc4cccc(C(F)(F)F)c4)nnc4cc(C)ccc34)N2)c(C)c1 (racemic) [Compound I-005] | ≥ 70 | 4.32 | ≥ 70 | ≥ 70 | ≥ 70 | 4.27 |
| Cc1cccc(Oc2nnc3ccccc3c2C2=NOCC(Cc3ccc(C)cc3C)N2)c1 (racemic) [Compound I-001, 4-[(5RS)-5-(2,4-dimethylbenzyl)-5,6-dihydro-4H-1,2,4-oxadiazin-3-yl]-3-(3-methylphenoxy)cinnoline] | ≥ 70 | 3.85 | ≥ 70 | ≥ 70 | ≥ 70 | – |
| CCOC(=O)c1c(Oc2cccc(C(F)(F)F)c2)nnc2c1CCC2 [Compound 1-22] | – | 3.5 | – | – | – | 3.35 |
| C#Cc1cccc(Oc2cnc3ccccc3c2C(=O)N[C@@H](CON)Cc2ccc(C)cc2C)c1 (racemic) [Compound 4-04] | – | 2.83 | – | – | – | – |
| Cc1ccc(C[C@@H]2CON=C(c3c(Oc4cccc(Br)c4F)cnc4ccccc34)N2)c(Cl)c1 (racemic) [Compound I-030] | – | 4.37 | – | – | – | – |
| Cc1ccc(C[C@H](CCl)NC(=O)c2c(Br)cnc3nccnc23)c(C)c1 (racemic) [Compound 14-01] | – | 2.97 | – | – | – | – |
| Cc1ccc(C[C@H](CON2C(=O)c3ccccc3C2=O)NC(=O)c2c(Oc3cccc(C(F)(F)F)c3)nnc3c2CCC3)c(C)c1 (racemic) [Compound 3-12] | – | 4.47 | – | – | – | – |
| C#Cc1cccc(Oc2cnc3ccccc3c2C(=O)N[C@@H](CON2C(=O)c3ccccc3C2=O)Cc2ccc(C)cc2C)c1 (racemic) [Compound 3-03] | – | 4.44 | – | – | – | – |
| Cc1ccc(C[C@H](CCl)NC(=O)c2c(Oc3cccc(C(F)F)c3)cnc3ccccc23)c(Cl)c1 (racemic) [Compound 10-05] | – | 4.33 | – | – | – | – |
| Cc1ccc(C[C@H](CON)NC(=O)c2c(Oc3cccc(C(F)F)c3)nnc3c2CCCC3)c(C)c1 (racemic) [Compound 4-14] | – | 2.55 | – | – | – | – |
